In patent US4764602A, “Antibiotics, and their production” (Sumitomo Chemical Company, priority 1986, dated 1988):
Values after ≈ are worked out from the molar mass of the structure shown.

Tests used:
[1] = test system: Aspergillus fumigatus MTU 16001; experiment: MIC by agar dilution method; assay type: cell-based; settings: MTU16001, Sabouraud's agar medium
Description: (§1) The minimum inhibitory concentrations (MIC) of PC-766B against various microorgnisms as measured by the agar dilution method are shown in Table 4.
(§2) Note: *^1 1: Modified MullerHinton agar medium; 2: Sabouraud's agar

Bacillus cereus IAM 1029 = experiment: MIC by agar dilution method; assay type: cell-based; settings: IAM1029, Modified MullerHinton agar medium
Description: as §1, §2

[2] = test system: Bacillus subtilis ATCC 6633; experiment: MIC by agar dilution method; assay type: cell-based; settings: ATCC6633, Modified MullerHinton agar medium
Description: as §1, §2

[3] = test system: Candida albicans MTU 12001; experiment: MIC by agar dilution method; assay type: cell-based; settings: MTU12001, Sabouraud's agar medium
Description: as §1, §2

[4] = test system: Cryptococcus neoformans MTU 13001; experiment: MIC by agar dilution method; assay type: cell-based; settings: MTU13001, Sabouraud's agar medium
Description: as §1, §2

[5] = test system: Escherichia coli NIJH JC-2; experiment: MIC by agar dilution method; assay type: cell-based; settings: NIJHJC2, Modified MullerHinton agar medium
Description: as §1, §2

[6] = test system: Klebsiella pneumoniae ATCC 10031; experiment: MIC by agar dilution method; assay type: cell-based; settings: ATCC10031, Modified MullerHinton agar medium
Description: as §1, §2

[7] = test system: Micrococcus luteus ATCC 9341; experiment: MIC by agar dilution method; assay type: cell-based; settings: ATCC9341, Modified MullerHinton agar medium
Description: as §1, §2

[8] = test system: Proteus mirabilis GN 2425; experiment: MIC by agar dilution method; assay type: cell-based; settings: GN2425, Modified MullerHinton agar medium
Description: as §1, §2

Pseudomonas aeruginosa T = experiment: MIC by agar dilution method; assay type: cell-based; settings: Modified MullerHinton agar medium
Description: as §1, §2

Serratia marcescens ×100 = experiment: MIC by agar dilution method; assay type: cell-based; settings: Modified MullerHinton agar medium
Description: as §1, §2

[9] = test system: Staphylococcus aureus 209P; experiment: MIC by agar dilution method; assay type: cell-based; settings: Modified MullerHinton agar medium
Description: as §1, §2

[10] = test system: Staphylococcus epidermidis IAM 1296; experiment: MIC by agar dilution method; assay type: cell-based; settings: IAM1296, Modified MullerHinton agar medium
Description: as §1, §2

[11] = test system: Streptococcus pyogenes Cook; experiment: MIC by agar dilution method; assay type: cell-based; settings: Modified MullerHinton agar medium
Description: as §1, §2

[12] = test system: Trichophyton mentagrophytes MTU 19001; experiment: MIC by agar dilution method; assay type: cell-based; settings: MTU19001, Sabouraud's agar medium
Description: as §1, §2

Solubility = assay type: physicochemical

CC=CC=CC1OC(O)(C(C)C(O)C(C)C2OC(=O)C(OC)=CC(C)=CC(C)C(O)C(C)CC(C)=CC=CC2OC)CC(OC2CC(O)C(O)C(C)O2)C1C (centres unmarked) [PC-766B]
MIC [1]: > 100 µg/mL
MIC (Bacillus cereus IAM 1029): 3.13 µg/mL (≈ 4.03 µM)
MIC [2]: 6.25 µg/mL (≈ 8.04 µM)
MIC [3]: > 100 µg/mL
MIC [4]: 12.5 µg/mL (≈ 16.1 µM)
MIC [5]: > 200 µg/mL
MIC [6]: > 200 µg/mL
MIC [7]: 1.56 µg/mL (≈ 2.01 µM)
MIC [8]: > 200 µg/mL
MIC (Pseudomonas aeruginosa T): > 200 µg/mL
MIC (Serratia marcescens ×100): > 200 µg/mL
MIC [9]: 12.5 µg/mL (≈ 16.1 µM)
MIC [10]: 6.25 µg/mL (≈ 8.04 µM)
MIC [11]: 3.13 µg/mL (≈ 4.03 µM)
MIC [12]: > 100 µg/mL
Solubility (Solubility; methanol, chloroform and ethyl acetate): soluble in methanol, chloroform and ethyl acetate
Solubility (Solubility; n-hexane and water): insoluble in n-hexane and water
